Source: paper PMC4508061, “Selectivity Profiling and Biological Activity of Novel β-Carbolines as Potent and Selective DYRK1 Kinase Inhibitors” (PLoS ONE, 2015)
Entries after “also recorded” stand apart in the source; their conditions may differ.

Key:
FGR = FGR (Homo sapiens, UniProt P09769); test: ProQinase radiometric kinase panel; conditions: mean of 2 exp.
GSG2 (Haspin) = GSG2 (Haspin) (Homo sapiens, UniProt Q8TF76); test: ProQinase radiometric kinase panel; conditions: mean of 2 exp.
PRK2 = PRK2 (Homo sapiens, UniProt Q16513); test: ProQinase radiometric kinase panel; conditions: mean of 2 exp.
EPHA8 = EPHA8 (Homo sapiens, UniProt P29322); test: ProQinase radiometric kinase panel; conditions: mean of 2 exp.
PIM3 = PIM3 (Homo sapiens, UniProt Q86V86); test: ProQinase radiometric kinase panel; conditions: mean of 2 exp.
STK17A = STK17A (Homo sapiens, UniProt Q9UEE5); test: ProQinase radiometric kinase panel; conditions: mean of 2 exp.
MAO-A = biological target: T1, MAO-A (Homo sapiens, UniProt P21397); test: MAO-GLO assay; type: biochemical
T1 sequence (P21397 1-527): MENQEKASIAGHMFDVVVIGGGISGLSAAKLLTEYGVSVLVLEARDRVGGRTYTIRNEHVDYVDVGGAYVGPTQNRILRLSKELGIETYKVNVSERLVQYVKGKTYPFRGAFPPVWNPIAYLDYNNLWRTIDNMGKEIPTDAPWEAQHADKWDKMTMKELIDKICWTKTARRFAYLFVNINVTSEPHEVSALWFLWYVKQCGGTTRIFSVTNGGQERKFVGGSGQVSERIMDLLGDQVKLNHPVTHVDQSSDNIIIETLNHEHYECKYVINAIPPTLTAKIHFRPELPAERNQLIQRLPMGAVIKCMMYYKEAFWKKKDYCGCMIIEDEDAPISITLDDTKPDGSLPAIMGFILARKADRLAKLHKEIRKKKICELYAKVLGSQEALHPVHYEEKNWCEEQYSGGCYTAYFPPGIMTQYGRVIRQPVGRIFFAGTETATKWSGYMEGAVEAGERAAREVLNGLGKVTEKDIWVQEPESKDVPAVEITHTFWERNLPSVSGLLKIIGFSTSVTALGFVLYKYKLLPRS
Protocol: 2 were calculated. Kinase activity of DYRK1A was determined by radiometric assays using the peptide DYRKtide as a substrate. MAO-A activity was measured with the help of the MAO-GLO assay kit (Promega). IC50 values were calculated by curve fitting with the help of […]
the […] PRISM 5.0 program after automatic outlier elimination. The graphs present

NEK3 = NEK3 (Homo sapiens, UniProt P51956); test: ProQinase radiometric kinase panel; conditions: mean of 2 exp.
MAPKAPK5 = MAPKAPK5 (Homo sapiens, UniProt Q8IW41); test: ProQinase radiometric kinase panel; conditions: mean of 2 exp.
SYK = SYK (Homo sapiens, UniProt P43405); test: ProQinase radiometric kinase panel; conditions: mean of 2 exp.
MAP3K7 = MAP3K7 (Homo sapiens, UniProt O43318); test: ProQinase radiometric kinase panel; conditions: mean of 2 exp.
EPHB2 = EPHB2 (Homo sapiens, UniProt P29323); test: ProQinase radiometric kinase panel; conditions: mean of 2 exp.
JAK1 = JAK1 (Homo sapiens, UniProt P23458); test: ProQinase radiometric kinase panel; conditions: mean of 2 exp.
CK1-gamma2 = CK1-gamma2 (Homo sapiens, UniProt P78368); test: ProQinase radiometric kinase panel; conditions: mean of 2 exp.
NEK11 = NEK11 (Homo sapiens, UniProt Q8NG66); test: ProQinase radiometric kinase panel; conditions: mean of 2 exp.
IRAK1 = IRAK1 (Homo sapiens, UniProt P51617); test: ProQinase radiometric kinase panel; conditions: mean of 2 exp.
CDK2/CycE1 = CDK2/CycE1 (Homo sapiens, UniProt P24941); test: ProQinase radiometric kinase panel; conditions: mean of 2 exp.
TBK1 = TBK1 (Homo sapiens, UniProt Q9UHD2); test: ProQinase radiometric kinase panel; conditions: mean of 2 exp.
TSF1 = TSF1 (Homo sapiens, UniProt O75716); test: ProQinase radiometric kinase panel; conditions: mean of 2 exp.
WEE1 = WEE1 (Homo sapiens, UniProt P30291); test: ProQinase radiometric kinase panel; conditions: mean of 2 exp.
NEK2 = NEK2 (Homo sapiens, UniProt P51955); test: ProQinase radiometric kinase panel; conditions: mean of 2 exp.
MYLK2 = MYLK2 (Homo sapiens, UniProt Q9H1R3); test: ProQinase radiometric kinase panel; conditions: mean of 2 exp.
FGF-R2 = FGF-R2 (Homo sapiens, UniProt P21802); test: ProQinase radiometric kinase panel; conditions: mean of 2 exp.
ERBB4 = ERBB4 (Homo sapiens, UniProt Q15303); test: ProQinase radiometric kinase panel; conditions: mean of 2 exp.
AKT1 = AKT1 (Homo sapiens, UniProt P31749); test: ProQinase radiometric kinase panel; conditions: mean of 2 exp.
TGFB-R2 = TGFB-R2 (Homo sapiens, UniProt P37173); test: ProQinase radiometric kinase panel; conditions: mean of 2 exp.
WNK2 = WNK2 (Homo sapiens, UniProt Q9Y3S1); test: ProQinase radiometric kinase panel; conditions: mean of 2 exp.
RIPK5 = RIPK5 (Homo sapiens, UniProt Q6XUX3); test: ProQinase radiometric kinase panel; conditions: mean of 2 exp.
CDK7/CycH/MAT1 = CDK7/CycH/MAT1 (Homo sapiens, UniProt P50613); test: ProQinase radiometric kinase panel; conditions: mean of 2 exp.
PRKX = PRKX (Homo sapiens, UniProt P51817); test: ProQinase radiometric kinase panel; conditions: mean of 2 exp.
HIPK3 = HIPK3 (Homo sapiens, UniProt Q9H422); test: ProQinase radiometric kinase panel; conditions: mean of 2 exp.

Chain of MAP3K7 (O43318 1-303 limits assumed): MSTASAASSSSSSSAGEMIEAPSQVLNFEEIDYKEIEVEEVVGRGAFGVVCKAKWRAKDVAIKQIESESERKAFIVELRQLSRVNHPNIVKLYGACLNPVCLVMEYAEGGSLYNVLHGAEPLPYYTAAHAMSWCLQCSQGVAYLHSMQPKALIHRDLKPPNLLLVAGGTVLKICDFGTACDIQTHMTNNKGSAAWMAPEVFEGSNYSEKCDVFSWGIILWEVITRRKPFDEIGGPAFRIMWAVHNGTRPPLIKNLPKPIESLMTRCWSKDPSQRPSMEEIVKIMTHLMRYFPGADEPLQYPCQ
Chain of NEK2 (P51955 whole entry): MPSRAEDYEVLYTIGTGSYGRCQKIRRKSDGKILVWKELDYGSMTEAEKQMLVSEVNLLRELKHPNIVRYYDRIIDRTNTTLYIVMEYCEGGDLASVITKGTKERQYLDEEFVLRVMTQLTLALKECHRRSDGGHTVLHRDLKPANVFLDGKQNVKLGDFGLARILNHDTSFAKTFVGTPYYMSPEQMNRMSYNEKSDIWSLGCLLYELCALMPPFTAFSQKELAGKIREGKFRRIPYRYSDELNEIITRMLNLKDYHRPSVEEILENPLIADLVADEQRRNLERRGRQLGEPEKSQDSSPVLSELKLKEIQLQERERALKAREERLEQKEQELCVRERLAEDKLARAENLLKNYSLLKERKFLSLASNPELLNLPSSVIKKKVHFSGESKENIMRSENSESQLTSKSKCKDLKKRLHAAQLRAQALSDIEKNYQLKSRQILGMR
Chain of MYLK2 (Q9H1R3 whole entry): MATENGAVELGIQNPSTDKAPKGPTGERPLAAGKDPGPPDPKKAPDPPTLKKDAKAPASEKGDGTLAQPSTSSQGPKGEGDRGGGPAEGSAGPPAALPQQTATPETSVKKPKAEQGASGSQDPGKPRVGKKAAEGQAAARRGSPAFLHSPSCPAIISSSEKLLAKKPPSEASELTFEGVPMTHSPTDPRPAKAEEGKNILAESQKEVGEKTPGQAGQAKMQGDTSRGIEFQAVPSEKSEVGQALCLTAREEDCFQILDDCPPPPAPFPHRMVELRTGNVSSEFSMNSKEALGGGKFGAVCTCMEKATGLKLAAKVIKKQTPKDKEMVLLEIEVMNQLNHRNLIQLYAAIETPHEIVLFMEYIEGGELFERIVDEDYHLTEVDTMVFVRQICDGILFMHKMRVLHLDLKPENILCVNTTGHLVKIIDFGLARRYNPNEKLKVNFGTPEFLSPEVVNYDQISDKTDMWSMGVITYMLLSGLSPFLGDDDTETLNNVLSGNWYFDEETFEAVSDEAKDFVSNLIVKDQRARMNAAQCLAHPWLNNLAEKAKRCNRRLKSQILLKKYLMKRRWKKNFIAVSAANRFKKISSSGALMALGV
Chain of MAPKAPK5 (Q8IW41 whole entry): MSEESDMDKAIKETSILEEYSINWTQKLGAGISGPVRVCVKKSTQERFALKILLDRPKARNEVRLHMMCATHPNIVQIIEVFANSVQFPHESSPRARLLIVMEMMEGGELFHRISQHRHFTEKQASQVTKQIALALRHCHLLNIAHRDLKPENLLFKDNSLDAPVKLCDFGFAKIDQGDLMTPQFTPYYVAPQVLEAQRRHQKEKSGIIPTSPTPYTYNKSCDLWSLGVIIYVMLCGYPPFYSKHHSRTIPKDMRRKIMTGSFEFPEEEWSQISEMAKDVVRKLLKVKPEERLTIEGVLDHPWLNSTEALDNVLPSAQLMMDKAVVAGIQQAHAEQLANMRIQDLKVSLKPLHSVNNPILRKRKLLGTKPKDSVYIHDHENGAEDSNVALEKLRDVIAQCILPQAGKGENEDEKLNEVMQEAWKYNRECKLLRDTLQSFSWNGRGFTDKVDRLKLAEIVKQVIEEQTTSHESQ
Chain of TBK1 (Q9UHD2 whole entry): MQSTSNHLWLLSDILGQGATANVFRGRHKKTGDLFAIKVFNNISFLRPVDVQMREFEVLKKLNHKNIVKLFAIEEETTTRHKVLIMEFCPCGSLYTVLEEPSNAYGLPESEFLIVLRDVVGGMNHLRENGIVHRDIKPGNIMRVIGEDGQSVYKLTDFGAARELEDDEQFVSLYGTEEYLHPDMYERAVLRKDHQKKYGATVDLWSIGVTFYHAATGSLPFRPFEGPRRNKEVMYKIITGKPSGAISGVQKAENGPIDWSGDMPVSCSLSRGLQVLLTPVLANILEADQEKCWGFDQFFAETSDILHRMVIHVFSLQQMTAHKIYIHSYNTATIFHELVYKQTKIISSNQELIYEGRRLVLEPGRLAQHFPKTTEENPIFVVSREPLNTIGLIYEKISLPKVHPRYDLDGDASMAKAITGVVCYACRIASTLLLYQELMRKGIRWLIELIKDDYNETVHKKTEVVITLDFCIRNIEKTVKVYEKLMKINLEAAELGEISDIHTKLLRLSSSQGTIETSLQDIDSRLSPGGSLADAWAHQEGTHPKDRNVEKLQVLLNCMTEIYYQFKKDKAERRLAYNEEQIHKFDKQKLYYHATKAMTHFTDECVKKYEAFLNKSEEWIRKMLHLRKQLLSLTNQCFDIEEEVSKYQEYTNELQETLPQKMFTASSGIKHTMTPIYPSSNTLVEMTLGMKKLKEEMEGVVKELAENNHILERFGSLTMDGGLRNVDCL
Chain of NEK3 (P51956 whole entry): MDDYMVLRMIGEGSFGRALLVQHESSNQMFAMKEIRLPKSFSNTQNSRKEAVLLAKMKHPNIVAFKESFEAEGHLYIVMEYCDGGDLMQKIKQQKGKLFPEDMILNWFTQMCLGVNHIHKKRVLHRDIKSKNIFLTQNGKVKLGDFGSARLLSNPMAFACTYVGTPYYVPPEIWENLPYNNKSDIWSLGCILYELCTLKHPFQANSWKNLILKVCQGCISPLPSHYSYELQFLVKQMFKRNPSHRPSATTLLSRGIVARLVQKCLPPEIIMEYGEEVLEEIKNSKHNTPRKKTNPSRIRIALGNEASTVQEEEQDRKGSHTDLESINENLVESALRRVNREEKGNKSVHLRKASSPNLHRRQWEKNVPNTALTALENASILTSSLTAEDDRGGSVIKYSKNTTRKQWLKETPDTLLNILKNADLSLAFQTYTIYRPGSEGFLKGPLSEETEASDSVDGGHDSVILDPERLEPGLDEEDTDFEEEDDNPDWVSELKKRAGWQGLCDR
Chain of STK17A (Q9UEE5 whole entry): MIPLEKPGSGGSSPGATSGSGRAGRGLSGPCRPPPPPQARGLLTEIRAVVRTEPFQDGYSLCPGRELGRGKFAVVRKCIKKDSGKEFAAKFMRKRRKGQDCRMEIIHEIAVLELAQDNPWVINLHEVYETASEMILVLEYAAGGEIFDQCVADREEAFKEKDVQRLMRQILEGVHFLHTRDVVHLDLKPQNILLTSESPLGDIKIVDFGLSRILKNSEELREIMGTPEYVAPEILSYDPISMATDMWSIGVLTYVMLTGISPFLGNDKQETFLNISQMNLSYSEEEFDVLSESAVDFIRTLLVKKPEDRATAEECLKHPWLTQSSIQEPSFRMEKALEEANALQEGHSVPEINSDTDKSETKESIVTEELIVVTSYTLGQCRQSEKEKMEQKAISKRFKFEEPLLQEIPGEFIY
Chain of NEK11 (Q8NG66 whole entry): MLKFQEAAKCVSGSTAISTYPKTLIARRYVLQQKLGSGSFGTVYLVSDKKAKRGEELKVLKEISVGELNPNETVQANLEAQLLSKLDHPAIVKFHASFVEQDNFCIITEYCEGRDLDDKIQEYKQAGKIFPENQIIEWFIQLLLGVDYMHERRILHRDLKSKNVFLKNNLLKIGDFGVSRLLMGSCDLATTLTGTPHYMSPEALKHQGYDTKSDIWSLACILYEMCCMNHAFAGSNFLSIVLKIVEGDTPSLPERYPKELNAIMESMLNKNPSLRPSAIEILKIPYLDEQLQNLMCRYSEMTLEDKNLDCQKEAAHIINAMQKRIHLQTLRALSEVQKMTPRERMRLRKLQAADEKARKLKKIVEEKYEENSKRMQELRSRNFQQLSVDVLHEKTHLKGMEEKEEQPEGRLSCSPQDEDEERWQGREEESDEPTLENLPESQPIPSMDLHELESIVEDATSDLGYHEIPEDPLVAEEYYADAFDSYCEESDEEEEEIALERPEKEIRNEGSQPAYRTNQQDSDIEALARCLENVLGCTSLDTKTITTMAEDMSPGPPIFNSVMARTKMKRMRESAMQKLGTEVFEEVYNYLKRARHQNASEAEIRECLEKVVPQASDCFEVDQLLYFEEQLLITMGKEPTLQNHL
Chain of TSF1 (O75716 whole entry): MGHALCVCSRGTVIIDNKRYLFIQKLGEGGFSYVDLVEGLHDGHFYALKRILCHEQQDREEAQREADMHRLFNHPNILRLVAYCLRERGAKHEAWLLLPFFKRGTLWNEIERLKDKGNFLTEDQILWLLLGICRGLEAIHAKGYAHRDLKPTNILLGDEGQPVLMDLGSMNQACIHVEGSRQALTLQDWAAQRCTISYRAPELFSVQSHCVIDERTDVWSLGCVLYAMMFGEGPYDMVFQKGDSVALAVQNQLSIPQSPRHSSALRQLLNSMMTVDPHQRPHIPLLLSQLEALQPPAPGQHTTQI

residual activity at 1 µM, Mean (FGR): 101 % of control
residual activity at 1 µM, Mean (GSG2 (Haspin)): 5 % of control
residual activity at 1 µM, Mean (PRK2): 88 % of control
residual activity at 1 µM, Mean (EPHA8): 89 % of control
residual activity at 1 µM, Mean (PIM3): 44 % of control
residual activity at 1 µM, Mean (STK17A): 89 % of control
IC50 (MAO-A; n = 3–5 concentration response curves, read-out: Inhibition of MAO-A IC50): > 10 µM
residual activity at 1 µM, Mean (NEK3): 91 % of control
residual activity at 1 µM, Mean (MAPKAPK5): 89 % of control
residual activity at 1 µM, Mean (SYK): 101 % of control
residual activity at 1 µM, Mean (MAP3K7): 91 % of control
residual activity at 1 µM, Mean (EPHB2): 99 % of control
residual activity at 1 µM, Mean (JAK1): 93 % of control
residual activity at 1 µM, Mean (CK1-gamma2): 82 % of control
residual activity at 1 µM, Mean (NEK11): 94 % of control
residual activity at 1 µM, Mean (IRAK1): 95 % of control
residual activity at 1 µM, Mean (CDK2/CycE1): 97 % of control
residual activity at 1 µM, Mean (TBK1): 94 % of control
residual activity at 1 µM, Mean (TSF1): 97 % of control
residual activity at 1 µM, Mean (WEE1): 100 % of control
residual activity at 1 µM, Mean (NEK2): 90 % of control
residual activity at 1 µM, Mean (MYLK2): 90 % of control
residual activity at 1 µM, Mean (FGF-R2): 85 % of control
residual activity at 1 µM, Mean (ERBB4): 90 % of control
residual activity at 1 µM, Mean (AKT1): 102 % of control
residual activity at 1 µM, Mean (TGFB-R2): 83 % of control
residual activity at 1 µM, Mean (WNK2): 98 % of control
residual activity at 1 µM, Mean (RIPK5): 91 % of control
residual activity at 1 µM, Mean (CDK7/CycH/MAT1): 100 % of control
residual activity at 1 µM, Mean (PRKX): 80 % of control
residual activity at 1 µM, Mean (HIPK3): 88 % of control
SMILES: COc1ccc2c3ccnc(Cl)c3n(CC#N)c2c1 [AnnH75]
effect on MAO-A (MAO-A): complete elimination of MAO-A inhibition; also recorded: no residual effect on MAO-A
